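Grown in 96-well plates, cells were treated for 48 hours with each compound at five concentrations. Insufficient inhibition: endpoint recorded as highest concentration tested. Here, GI50 denotes the concentration required for 50% inhibition of growth.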 Activity calls are given as the source filed them. No stated cut-off is given here; in the data, active = GI50 up to about 1.1 µM and inactive = higher.
Legend:
Experiment in all cases: NCI anticancer screen, dose series, 48 h
NCI-H23 = test system: NCI-H23
M14 = test system: M14
UO-31 = test system: UO-31
NCI/ADR-RES = test system: NCI/ADR-RES
OVCAR-8 = test system: OVCAR-8
LXFL 529 = test system: LXFL 529
RXF 393 = test system: RXF 393
SK-OV-3 = test system: SK-OV-3
HCC 2998 = test system: HCC 2998
HT-29 = test system: HT-29
U-251 = test system: U-251
NCI-H226 = test system: NCI-H226
T47D = test system: T47D
DU-145 = test system: DU-145
UACC-257 = test system: UACC-257
BT-549 = test system: BT-549
DMS-273 = test system: DMS-273
PC-3 = test system: PC-3
SK-MEL-28 = test system: SK-MEL-28
EKVX = test system: EKVX
K562 = test system: K562
SNB-19 = test system: SNB-19
MDA-N = test system: MDA-N
LOX IMVI = test system: LOX IMVI
TK-10 = test system: TK-10
OVCAR-4 = test system: OVCAR-4
HCT-116 = test system: HCT-116
RPMI-8226 = test system: RPMI-8226
UACC-62 = test system: UACC-62
HCT-15 = test system: HCT-15
MOLT-4 = test system: MOLT-4
786-0 = test system: 786-0
MDA-MB-231 = test system: MDA-MB-231
SF-539 = test system: SF-539
HOP-92 = test system: HOP-92
HOP-62 = test system: HOP-62
ACHN = test system: ACHN
SF-295 = test system: SF-295
KM-20L2 = test system: KM-20L2
SW-620 = test system: SW-620
MCF7 = test system: MCF7
NCI-H522 = test system: NCI-H522
A498 = test system: A498
SK-MEL-5 = test system: SK-MEL-5
IGROV-1 = test system: IGROV-1
CCRF-CEM = test system: CCRF-CEM
Malme-3M = test system: Malme-3M
SNB-78 = test system: SNB-78
DMS-114 = test system: DMS-114
OVCAR-5 = test system: OVCAR-5
SN12C = test system: SN12C
KM12 = test system: KM12
NCI-H460 = test system: NCI-H460
COLO 205 = test system: COLO 205
SK-MEL-2 = test system: SK-MEL-2
SF-268 = test system: SF-268
SNB-75 = test system: SNB-75
HL-60 = test system: HL-60
SR = test system: SR
OVCAR-3 = test system: OVCAR-3
DLD-1 = test system: DLD-1
M19-MEL = test system: M19-MEL
A549 = test system: A549
XF498 = test system: XF498
CAKI-1 = test system: CAKI-1

## CCOC(=O)CSc1nnc(C(Sc2nc(-c3ccccc3)c(-c3ccccc3)[nH]2)C(C)C)n1-c1ccccc1 (stereo not given)
NCI-H23
  GI50: > 10 µM (inactive)
M14
  GI50: 14.3 µM (inactive)
UO-31
  GI50: 17.4 µM (inactive)
NCI/ADR-RES
  GI50: 26.9 µM (inactive)
OVCAR-8
  GI50: 19.1 µM (inactive)
LXFL 529
  GI50: > 10 µM (inactive)
RXF 393
  GI50: 26.2 µM (inactive)
SK-OV-3
  GI50: > 10 µM (inactive)
HCC 2998
  GI50: 19.2 µM (inactive)
HT-29
  GI50: 14 µM (inactive)
U-251
  GI50: > 10 µM (inactive)
NCI-H226
  GI50: 17.1 µM (inactive)
T47D
  GI50: 28.3 µM (inactive)
DU-145
  GI50: 39.6 µM (inactive)
UACC-257
  GI50: 14 µM (inactive)
BT-549
  GI50: 24.5 µM (inactive)
DMS-273
  GI50: > 10 µM (inactive)
PC-3
  GI50: 28.6 µM (inactive)
SK-MEL-28
  GI50: 18.2 µM (inactive)
EKVX
  GI50: 21.2 µM (inactive)
K562
  GI50: 24.7 µM (inactive)
SNB-19
  GI50: 21.9 µM (inactive)
MDA-N
  GI50: 30.4 µM (inactive)
LOX IMVI
  GI50: 13.7 µM (inactive)
TK-10
  GI50: 21.5 µM (inactive)
OVCAR-4
  GI50: 17.5 µM (inactive)
HCT-116
  GI50: 14.5 µM (inactive)
RPMI-8226
  GI50: 33.4 µM (inactive)
UACC-62
  GI50: > 10 µM (inactive)
HCT-15
  GI50: 18.1 µM
MOLT-4
  GI50: 17.1 µM (inactive)
786-0
  GI50: 16 µM (inactive)
MDA-MB-231
  GI50: 24.4 µM (inactive)
SF-539
  GI50: 13 µM (inactive)
HOP-92
  GI50: > 10 µM (inactive)
HOP-62
  GI50: > 10 µM (inactive)
ACHN
  GI50: 19.7 µM (inactive)
SF-295
  GI50: > 10 µM (inactive)
KM-20L2
  GI50: > 10 µM (inactive)
SW-620
  GI50: 19 µM (inactive)
MCF7
  GI50: 34.7 µM (inactive)
NCI-H522
  GI50: 15.2 µM (inactive)
A498
  GI50: > 10 µM (inactive)
SK-MEL-5
  GI50: > 10 µM (inactive)
IGROV-1
  GI50: > 10 µM (inactive)
CCRF-CEM
  GI50: 14.3 µM (inactive)
Malme-3M
  GI50: 17.5 µM (inactive)
SNB-78
  GI50: > 10 µM (inactive)
DMS-114
  GI50: > 10 µM (inactive)
OVCAR-5
  GI50: 18.9 µM (inactive)
SN12C
  GI50: 15.9 µM (inactive)
KM12
  GI50: 17.7 µM (inactive)
NCI-H460
  GI50: 17.5 µM (inactive)
COLO 205
  GI50: 17 µM (inactive)
SK-MEL-2
  GI50: 16.1 µM (inactive)
SF-268
  GI50: 17.9 µM (inactive)
SNB-75
  GI50: > 10 µM (inactive)
HL-60
  GI50: 20 µM (inactive)
SR
  GI50: 31.2 µM (inactive)
OVCAR-3
  GI50: > 10 µM (inactive)
DLD-1
  GI50: > 10 µM (inactive)
M19-MEL
  GI50: > 10 µM (inactive)
A549
  GI50: 19.2 µM (inactive)

## C#CCSc1nc(N)c2ncn(C3OC(CO)C(O)C3O)c2n1 (stereo not given)
NCI-H23
  GI50: > 100 µM (inactive)
UO-31
  GI50: > 100 µM (inactive)
OVCAR-8
  GI50: > 100 µM (inactive)
LXFL 529
  GI50: > 100 µM (inactive)
RXF 393
  GI50: > 100 µM (inactive)
HCC 2998
  GI50: > 100 µM (inactive)
HT-29
  GI50: > 100 µM (inactive)
U-251
  GI50: > 100 µM (inactive)
UACC-257
  GI50: > 100 µM (inactive)
DMS-273
  GI50: > 100 µM (inactive)
SK-MEL-28
  GI50: > 100 µM (inactive)
EKVX
  GI50: > 100 µM (inactive)
K562
  GI50: > 100 µM (inactive)
SNB-19
  GI50: > 100 µM (inactive)
LOX IMVI
  GI50: > 100 µM (inactive)
XF498
  GI50: > 100 µM (inactive)
TK-10
  GI50: > 100 µM (inactive)
OVCAR-4
  GI50: > 100 µM (inactive)
HCT-116
  GI50: > 100 µM (inactive)
RPMI-8226
  GI50: > 100 µM (inactive)
HCT-15
  GI50: > 100 µM
MOLT-4
  GI50: > 100 µM (inactive)
786-0
  GI50: > 100 µM (inactive)
HOP-62
  GI50: > 100 µM (inactive)
ACHN
  GI50: > 100 µM (inactive)
SF-295
  GI50: > 100 µM (inactive)
SW-620
  GI50: > 100 µM (inactive)
NCI-H522
  GI50: > 100 µM (inactive)
A498
  GI50: > 100 µM (inactive)
SK-MEL-5
  GI50: > 100 µM (inactive)
IGROV-1
  GI50: > 100 µM (inactive)
CCRF-CEM
  GI50: > 100 µM (inactive)
Malme-3M
  GI50: > 100 µM (inactive)
SNB-78
  GI50: > 100 µM (inactive)
DMS-114
  GI50: > 100 µM (inactive)
SN12C
  GI50: > 100 µM (inactive)
KM12
  GI50: > 100 µM (inactive)
NCI-H460
  GI50: > 100 µM (inactive)
COLO 205
  GI50: > 100 µM (inactive)
SF-268
  GI50: > 100 µM (inactive)
HL-60
  GI50: > 100 µM (inactive)
SR
  GI50: > 100 µM (inactive)
OVCAR-3
  GI50: > 100 µM (inactive)
DLD-1
  GI50: > 100 µM (inactive)
M19-MEL
  GI50: > 100 µM (inactive)
A549
  GI50: > 100 µM (inactive)

## COc1ccc(-c2cc(=O)c3ccc(O)cc3o2)c(OC)c1OC
NCI-H23
  GI50: 43.4 µM (inactive)
M14
  GI50: 72.9 µM (inactive)
LXFL 529
  GI50: 66.8 µM (inactive)
RXF 393
  GI50: 28.9 µM (inactive)
SK-OV-3
  GI50: 90.6 µM (inactive)
HCC 2998
  GI50: 48.8 µM (inactive)
HT-29
  GI50: 60.4 µM (inactive)
NCI-H226
  GI50: > 100 µM (inactive)
UACC-257
  GI50: 94 µM (inactive)
SK-MEL-28
  GI50: 64.3 µM (inactive)
EKVX
  GI50: 87.3 µM (inactive)
K562
  GI50: 29.6 µM (inactive)
SNB-19
  GI50: 65 µM (inactive)
LOX IMVI
  GI50: 60.7 µM (inactive)
XF498
  GI50: 65.5 µM (inactive)
TK-10
  GI50: 78.3 µM (inactive)
OVCAR-4
  GI50: 88.7 µM (inactive)
HCT-116
  GI50: 51.9 µM (inactive)
RPMI-8226
  GI50: 18.9 µM (inactive)
UACC-62
  GI50: 36.2 µM (inactive)
786-0
  GI50: 79.3 µM (inactive)
SF-539
  GI50: 46 µM (inactive)
HOP-92
  GI50: 82.2 µM (inactive)
HOP-62
  GI50: 92.3 µM (inactive)
ACHN
  GI50: 40.9 µM (inactive)
SF-295
  GI50: 46.5 µM (inactive)
KM-20L2
  GI50: 43 µM (inactive)
SW-620
  GI50: 48 µM (inactive)
NCI-H522
  GI50: 25.4 µM (inactive)
IGROV-1
  GI50: > 100 µM (inactive)
CCRF-CEM
  GI50: 42.8 µM (inactive)
Malme-3M
  GI50: > 100 µM (inactive)
DMS-114
  GI50: 33.2 µM (inactive)
OVCAR-5
  GI50: > 10 µM (inactive)
SN12C
  GI50: 82.8 µM (inactive)
KM12
  GI50: 71.1 µM (inactive)
COLO 205
  GI50: 95.9 µM (inactive)
SK-MEL-2
  GI50: 27.2 µM (inactive)
SF-268
  GI50: 41.3 µM (inactive)
CAKI-1
  GI50: 89.3 µM (inactive)
SNB-75
  GI50: 28.7 µM (inactive)
HL-60
  GI50: 31.6 µM (inactive)
OVCAR-3
  GI50: 41.9 µM (inactive)
DLD-1
  GI50: 93.1 µM (inactive)
M19-MEL
  GI50: 74.3 µM (inactive)
A549
  GI50: 55.7 µM (inactive)

From ChEMBL document CHEMBL1201862, “PubChem BioAssay data set” (2004)
